System: P. falciparum K1
Experiment: Plasmodium falciparum in vitro assay ([3H] hypoxanthine incorporation)
Format: cell-based
Conditions: 72 h, erythrocytic stages of P. falciparum K1 (strain resistant to chloroquine and pyrimethamine), human red cells, 48 h + 24 h with [3H] hypoxanthine
Description: In vitro activity against erythrocytic stages of P. falciparum is determined using a [^3H] hypoxanthine incorporation assay. One strain resistant to chloroquine and pyrimethamine (P. falciparum K1) is used in the assays, and all test compounds are compared for activity with the standard drugs chloroquine (sigma C6628) and artemisinin (sigma-36, 159-3). Compounds are diluted in DMSO to 1 mM and added to parasite cultures incubated in RPMI 1640 medium without hypoxanthine, supplemented with HEPES (5.94 g/L), NaHCO3 (2.1 g/L), neomycin (100 U/mL), Albumax (5 g/L) and washed human red cells at 2.5% haematocrit (0.3% parasitaemia). Seven serial doubling dilutions of each drug are prepared in 96-well microtitre plates and incubated in a humidifying atmosphere at 37° C.; 4% CO2, 3% O2, 93% N2.
After 48 hours, 50 μl of [^3H] hypoxanthine (0.5 μCi) is added to each well of a plate. The plates are incubated for a further 24 hours under the same conditions. The plates are then harvested with a Betaplate cell harvester (Wallac) and washed with distilled water. The dried filters are inserted into a plastic foil with 10 mL of scintillation fluid, and counted in a Betaplate liquid scintillation counter. IC50 values are calculated from sigmoidal inhibition curves using Microsoft Excel.

Compound	IC50 [nM]
C[C@@H]1CC[C@H]2[C@@H](C)C(=O)O[C@@H]3O[C@@]4(C)CC[C@@H]1[C@]32OO4 [Artemisinin, artemisinin, reference compound]	2
CCCCCc1ccc(CN(C(=O)/C=C/c2ccc(C(F)(F)F)cc2)[C@@H](Cc2ccccc2)C(=O)N2CCN(Cc3ccccc3)CC2)cc1 [Example 1, N—[(S)-1-benzyl-2-(4-benzyl-piperazin-1-yl)-2-oxo-ethyl]-N-(4-pentyl-benzyl)-3-(4-trifluoromethyl-phenyl)-acrylamide]	3.8
CCCCCc1ccc(CN(C(=O)/C=C/c2cccc(C(F)(F)F)c2)[C@@H](Cc2ccccc2)C(=O)N2CCN(Cc3ccccc3)CC2)cc1 [Example 2, N—[(S)-1-benzyl-2-(4-benzyl-piperazin-1-yl)-2-oxo-ethyl]-N-(4-pentyl-benzyl)-3-(3-trifluoromethyl-phenyl)-acrylamide]	70
CCCCCc1ccc(CN(C(=O)/C=C/c2ccccc2C(F)(F)F)[C@@H](Cc2ccccc2)C(=O)N2CCN(Cc3ccccc3)CC2)cc1 [Example 3, N—[(S)-1-benzyl-2-(4-benzyl-piperazin-1-yl)-2-oxo-ethyl]-N-(4-pentyl-benzyl)-3-(2-trifluoromethyl-phenyl)-acrylamide]	375
CCCCCc1ccc(CN(C(=O)/C=C/c2ccc(OC)cc2)[C@@H](Cc2ccccc2)C(=O)N2CCN(Cc3ccccc3)CC2)cc1 [Example 4, N—[(S)-1-benzyl-2-(4-benzyl-piperazin-1-yl)-2-oxo-ethyl]-3-(4-methoxy-phenyl)-N-(4-pentyl-benzyl)-acrylamide]	7
CCCCCc1ccc(CN(C(=O)/C=C/c2cccc(OC)c2)[C@@H](Cc2ccccc2)C(=O)N2CCN(Cc3ccccc3)CC2)cc1 [Example 5, N—[(S)-1-benzyl-2-(4-benzyl-piperazin-1-yl)-2-oxo-ethyl]-3-(3-methoxy-phenyl)-N-(4-pentyl-benzyl)-acrylamide]	19
CCCCCc1ccc(CN(C(=O)CCc2cc(C(F)(F)F)cc(C(F)(F)F)c2)[C@@H](Cc2ccccc2)C(=O)N2CCN(Cc3ccccc3)CC2)cc1 [Example 6, N—[(S)-1-benzyl-2-(4-benzyl-piperazin-1-yl)-2-oxo-ethyl]-3-(3,5-bis-trifluoromethyl-phenyl)-N-(4-pentyl-benzyl)-propionamide]	588
CCCCCc1ccc(CN(C(=O)/C=C/c2ccc(C(F)(F)F)cc2)[C@@H](Cc2ccccc2)C(=O)N2CCN(Cc3ccc(C(F)(F)F)nc3)CC2)cc1 [Example 15]	11
CCCCOc1ccc(CN(C(=O)/C=C/c2ccc(C(F)(F)F)cc2)[C@@H](Cc2ccccc2)C(=O)N2CCN(Cc3ccccc3)CC2)cc1 [Example 29, N—[(S)-1-benzyl-2-(4-benzyl-piperazin-1-yl)-2-oxo-ethyl]-N-(4-butoxy-benzyl)-3-(4-trifluoromethyl-phenyl)-acrylamide]	7.5
CCCCc1ccc(CN(C(=O)/C=C/c2ccc(C(F)(F)F)cc2)[C@@H](Cc2ccccc2)C(=O)N2CCN(Cc3ccccc3)CC2)cc1 [Example 33]	6.9
CC(C)Cc1ccc(CN(C(=O)/C=C/c2ccc(C(F)(F)F)cc2)[C@@H](Cc2ccccc2)C(=O)N2CCN(Cc3ccccc3)CC2)cc1 [Example 37]	18
CCCCOc1ccc(CN(C(=O)/C=C/c2ccc(OC)cc2)[C@@H](Cc2ccccc2)C(=O)N2CCN(Cc3ccccc3)CC2)cc1 [Example 38]	11
COc1ccc(/C=C/C(=O)N(Cc2ccc(OCCCN(C)C)cc2)[C@@H](Cc2ccccc2)C(=O)N2CCN(Cc3ccccc3)CC2)cc1 [Example 43]	8.3
O=C([C@H](Cc1ccccc1)N(Cc1ccc(-c2ccncc2)nc1)C(=O)/C=C/c1ccc(C(F)(F)F)cc1)N1CCN(Cc2ccccc2)CC1 [Example 125, N—[(S)-1-benzyl-2-(4-benzyl-piperazin-1-yl)-2-oxo-ethyl]-N-[2,4′]bipyridinyl-5-ylmethyl-3-(4-trifluoromethyl-phenyl)-acrylamide]	4.8
O=C([C@H](Cc1ccccc1)N(Cc1ccc(N2CCCC2=O)nc1)C(=O)/C=C/c1ccc(C(F)(F)F)cc1)N1CCN(Cc2ccccc2)CC1 [Example 129, N—[(S)-1-benzyl-2-(4-benzyl-piperazin-1-yl)-2-oxo-ethyl]-N-[6-(2-oxo-pyrrolidin-1-yl)-pyridin-3-ylmethyl]-3-(4-trifluoromethyl-phenyl)-acrylamide]	9.5

— patent publication US8067419B2, “Piperazines as antimalarial agents” (Actelion Pharmaceuticals Ltd., priority 2005, dated 2011)
